Read-outs that look alike come from different tables or passages of the source.
Experiments:
[1] = test system: SR; test: NCI-60 cytotoxicity screen; type: cell-based; details: Homo sapiens, Fig 7, read-out: mean log10 of the GI50 values (converted)
[2] = test system: EKVX; test: NCI-60 cytotoxicity screen; type: cell-based
[3] = test system: HOP-62; test: NCI-60 cytotoxicity screen; type: cell-based
[4] = test system: HOP-92; test: NCI-60 cytotoxicity screen; type: cell-based
[5] = test system: NCI-H23; test: NCI-60 cytotoxicity screen; type: cell-based
[6] = test system: SNB-75; test: NCI-60 cytotoxicity screen; type: cell-based
[7] = test system: M14; test: NCI-60 cytotoxicity screen; type: cell-based
[8] = test system: OVCAR-4; test: NCI-60 cytotoxicity screen; type: cell-based
[9] = test system: SK-OV-3; test: NCI-60 cytotoxicity screen; type: cell-based
[10] = test system: A498; test: NCI-60 cytotoxicity screen; type: cell-based
[11] = test system: SN12C; test: NCI-60 cytotoxicity screen; type: cell-based
[12] = test system: DU-145; test: NCI-60 cytotoxicity screen; type: cell-based
[13] = test system: HS 578T; test: NCI-60 cytotoxicity screen; type: cell-based
[14] = test system: T-47D; test: NCI-60 cytotoxicity screen; type: cell-based
[15] = test system: HBC-4; test: JFCR-39 cytotoxicity screen; type: cell-based
[16] = test system: HBC-5; test: JFCR-39 cytotoxicity screen; type: cell-based
[17] = test system: MCF-7; test: JFCR-39 cytotoxicity screen; type: cell-based
[18] = test system: U251; test: JFCR-39 cytotoxicity screen; type: cell-based
[19] = test system: SF-295; test: JFCR-39 cytotoxicity screen; type: cell-based
[20] = test system: HCT-15; test: JFCR-39 cytotoxicity screen; type: cell-based
[21] = test system: NCI-H23; test: JFCR-39 cytotoxicity screen; type: cell-based
[22] = test system: A549; test: JFCR-39 cytotoxicity screen; type: cell-based
[23] = test system: DMS114; test: JFCR-39 cytotoxicity screen; type: cell-based
[24] = test system: OVCAR-4; test: JFCR-39 cytotoxicity screen; type: cell-based
[25] = test system: SK-OV-3; test: JFCR-39 cytotoxicity screen; type: cell-based
[26] = test system: MKN7; test: JFCR-39 cytotoxicity screen; type: cell-based
[27] = test system: DU-145; test: JFCR-39 cytotoxicity screen; type: cell-based
[28] = test system: PC-3; test: JFCR-39 cytotoxicity screen; type: cell-based
[29] = test system: NF-κB p65 subunit in OVCAR-3 cells; test: Western blotting of nuclear and cytosolic fractions; type: cell-based, human; details: OVCAR-3 nuclear fraction
Protocol: Treated cells were fractionated into nuclear and cytosolic fractions using the Nuclear/Cytosol fractionation kit (BioVision), separated by electrophoresis in SDS-PAGE gels and transferred to Amersham Hybond-P PVDF Membranes. Membranes were probed with either anti-NF-κB p65 rabbit monoclonal primary antibody [E379] Abcam # ab32536, anti-TATA binding protein (TBP) mouse antibody (1TBP18), or anti-beta Tubulin rabbit antibody [NB600-936]. After washing, membranes were incubated with either goat anti-rabbit IgG H&L (HRP) (ab6721), or rabbit anti-mouse IgG H&L (HRP) (ab6728) secondary antibodies. Membranes were developed using the Immobilon Western chemiluminescent HRP substrate kit. Protein bands were normalized to either the beta Tubulin or TBP bands and quantified using ImageJ software.

[30] = test system: normal cardiac myoblast H9c2 cells; details: rat
Protocol: Briefly, 96 well microtiter plates were inoculated with the specified human cancer cell lines in RPMI 1640 medium containing 5% fetal bovine serum and 2 mM L-glutamine at the specified plating densities. The microtiter plates were incubated at 37°C, 5% CO2, and 100% relative humidity for 24 h. The test compounds were solubilized in DMSO at 400-fold the desired final maximum test concentration, diluted with complete medium containing gentamicin and added to the wells of the microtiter plates to achieve the final desired compound concentration, then incubated for an additional 48 h at the same incubation conditions. The media were removed, the cells were fixed then stained with sulforhodamine B and the unbound dye was removed by washing with acetic acid. The bound dye was resolubilized with trizma base and the absorbance at 515 nm was measured. Cells were stained with the WST-1 cell proliferation reagent instead of sulforhodamine B in some experiments and absorbance were measured at 440 nm. The three dose response parameters GI50, TGI and LC50 were calculated for each experimental compound as follows [48]: For values where Ti ≥ Tz the formula is [ (Ti-Tz) / (C-Tz)] x 100 For values where Ti < Tz the formula is [ (Ti-Tz) / Tz] x 100 Where Ti is the absorbance of the solubilized Sulforhodamine B (SRB) (representing the number of cells) of the five different concentrations of the compound used in the test, Tz is the absorbance of the SRB at time zero, and C is the absorbance of the SRB of the control growth.

[31] = Homo sapiens, Fig 7, read-out: mean log10 of the GI50 values (converted)
[32] = Homo sapiens, five-dose, read-out: GI50
[33] = Homo sapiens, five-dose, read-out: LC50 (the source's name)
[34] = Homo sapiens, single dose 10 μM, read-out: growth inhibition
[35] = Homo sapiens, read-out: LC50 (the source's name)

Structure (SMILES): O=C1c2ccccc2C(=O)c2c1ccc1nsnc21 [NSC745885, anthra[1,2-c][1,2,5]thiadiazole-6,11-dione]
- GI50 [1]: 6.92 µM
- GI50 [2, 31]: 1.86 µM
- GI50 [2, 32]: 1.55 µM
- CC50 [2, 33]: 7.66 µM
- TGI ([2]; five-dose): 3.45 µM
- GI50 [3, 31]: 2.14 µM
- GI50 [3, 32]: 1.28 µM
- CC50 [3, 33]: 8.53 µM
- inhibition at 10 µM [3, 34]: 100%
- TGI ([3]; five-dose): 3.31 µM
- GI50 [4, 31]: 2.69 µM
- GI50 [4, 32]: 2.52 µM
- CC50 [4, 33]: > 100 µM
- TGI ([4]; five-dose): 6.64 µM
- GI50 [5, 31]: 1.07 µM
- GI50 [5, 32]: 1.44 µM
- CC50 [5, 33]: > 100 µM
- TGI ([5]; five-dose): 6.04 µM
- GI50 [6, 31]: 1.7 µM
- GI50 [6, 32]: 2.03 µM
- CC50 [6, 33]: 18.6 µM
- TGI ([6]; five-dose): 5.20 µM
- GI50 [7, 31]: 2.29 µM
- GI50 [7, 32]: 2.15 µM
- CC50 [7, 33]: > 100 µM
- TGI ([7]; five-dose): 4.85 µM
- GI50 [8, 31]: 0.575 µM
- GI50 [8, 32]: 0.65 µM
- CC50 [8, 33]: 5.57 µM
- inhibition at 10 µM [8, 34]: 94.4%
- TGI ([8]; five-dose): 2.17 µM
- GI50 [9, 31]: 4.17 µM
- GI50 [9, 32]: 7.71 µM
- CC50 [9, 33]: 53.4 µM
- TGI ([9]; five-dose): 22.5 µM
- GI50 [10, 31]: 35.5 µM
- GI50 [10, 32]: 12.4 µM
- CC50 [10, 33]: 52 µM
- TGI ([10]; five-dose): 25.4 µM
- GI50 [11, 31]: 1.78 µM
- GI50 [11, 32]: 1.33 µM
- CC50 [11, 33]: 7.56 µM
- TGI ([11]; five-dose): 3.17 µM
- GI50 [12, 31]: 3.55 µM
- GI50 [12, 32]: 1.67 µM
- CC50 [12, 33]: 6.27 µM
- TGI ([12]; five-dose): 3.24 µM
- TGI ([13]; HS 578T, five-dose): 5.02 µM
- GI50 ([13]; Homo sapiens, Hs-578T, HS578T, Fig 7, read-out: mean log10 of the GI50 values (converted)): 2.63 µM
- GI50 ([13]; Homo sapiens, HS 578T, five-dose, read-out: GI50): 1.41 µM
- CC50 ([13]; Homo sapiens, HS 578T, five-dose, read-out: LC50 (the source's name)): 56 µM
- GI50 ([14]; Homo sapiens, T47D, Fig 7, read-out: mean log10 of the GI50 values (converted)): 0.724 µM
- GI50 ([14]; Homo sapiens, T47D, five-dose, read-out: GI50): 1.39 µM
- CC50 ([14]; Homo sapiens, T47D, five-dose, read-out: LC50 (the source's name)): 8.27 µM
- TGI ([14]; five-dose): 3.39 µM
- TGI [15]: 3.0 µM
- GI50 ([15]; Homo sapiens, HBC4): 1.7 µM
- CC50 ([15]; Homo sapiens, HBC4, read-out: LC50 (the source's name)): 5.5 µM
- TGI [16]: 3.5 µM
- GI50 ([16]; Homo sapiens, HBC5): 1.9 µM
- CC50 ([16]; Homo sapiens, HBC5, read-out: LC50 (the source's name)): 6.2 µM
- TGI [17]: 3.9 µM
- GI50 ([17]; Homo sapiens, MCF7): 1.9 µM
- CC50 ([17]; Homo sapiens, MCF7, read-out: LC50 (the source's name)): 8.1 µM
- TGI [18]: 3.1 µM
- GI50 ([18]; Homo sapiens, U-251): 1.6 µM
- CC50 ([18]; Homo sapiens, U-251, read-out: LC50 (the source's name)): 5.8 µM
- TGI [19]: 3.3 µM
- GI50 ([19]; Homo sapiens): 1.8 µM
- CC50 [19, 35]: 5.9 µM
- TGI [20]: 3.4 µM
- GI50 ([20]; Homo sapiens): 1.8 µM
- CC50 [20, 35]: 6.3 µM
- TGI [21]: 2.9 µM
- GI50 ([21]; Homo sapiens): 1.1 µM
- CC50 [21, 35]: 8 µM
- TGI [22]: 41.0 µM
- GI50 ([22]; Homo sapiens): 19 µM
- CC50 [22, 35]: 89 µM
- TGI [23]: 1.8 µM
- GI50 ([23]; Homo sapiens, DMS-114): 0.5 µM
- CC50 ([23]; Homo sapiens, DMS-114, read-out: LC50 (the source's name)): 5 µM
- TGI [24]: 2.9 µM
- GI50 ([24]; Homo sapiens): 1.5 µM
- CC50 [24, 35]: 5.5 µM
- TGI [25]: 8.3 µM
- GI50 ([25]; Homo sapiens): 2.7 µM
- CC50 [25, 35]: 29 µM
- TGI [26]: 3.7 µM
- GI50 ([26]; Homo sapiens, MKN-7): 1.1 µM
- CC50 ([26]; Homo sapiens, MKN-7, read-out: LC50 (the source's name)): 17 µM
- TGI [27]: 3.5 µM
- GI50 ([27]; Homo sapiens): 2 µM
- CC50 [27, 35]: 6.1 µM
- TGI [28]: 2.8 µM
- GI50 ([28]; Homo sapiens): 1.3 µM
- CC50 [28, 35]: 6 µM
- dose of almost complete inhibition of nuclear NF-κB p65 expression [29]: 2.4 µM
- cytotoxicity towards normal cardiac myoblast H9c2 cells [30]: significantly less cytotoxic effects on H9c2 cells at higher doses than doxorubicin
